From patent US20220332764A1, “T CELL EPITOPES OF HCMV AND USES OF THEREOF” (EBERHARD KARLS UNIVERSITÄT TÜBINGEN, priority 2019, published 2022)
Where two headings read alike, the source gives them in different places.

Tests used:
[1] = test system: PBMCs of healthy HCMV-seropositive donors; test: IFNγ ELISpot after 12 day stimulation (memory T-cell response); format: cell-based, human; settings: for % Positive donors (after 12 days of stimulation): IFNγ ELISpot, HLA-matched seropositive donors; for ELISpot response rate (12 d stim.): 12-day amplification with IL-2 in vitro; for Positive donors as tested: positive / tested HLA-matched seropositive donors, positive: >10 spots/well and at least 3-fold negative control
Excerpt: (§1) PHA was used as positive control.

[2] = test system: HLA; settings: Table 2, preferred dominant epitopes
[3] = test system: CD8+ / CD4+ T cells of donor PBMCs; test: Intracellular cytokine staining (ICS; IFNγ, TNFα, CD107a); format: cell-based, human; settings: for Intracellular staining: responding T-cell subset; for Intracellular cytokine staining: responding T-cell subset after peptide stimulation
Excerpt: PHA was used as positive control. […] (Cytofix/Cytoperm, BD Biosciences).

[4] = test system: PBMCs of healthy HCMV-seropositive donors; test: ex vivo IFNγ ELISpot without prestimulation; format: cell-based, human; settings: for % Positive donors (ex vivo): IFNγ ELISpot ex vivo, donors previously tested positive; for ELISpot response rate (ex vivo): donors positively tested in ELISpots with 12d stimulation
Excerpt: as §1

[5] = test system: CD8+ T cells of HLA-matched healthy donors; settings: for Tetramer-staining: after 12 day amplification

Row | Sequence | % Positive donors (after 12 days of stimulation) [1] | Positive donors as tested [1] | Intracellular cytokine staining [3] | % Positive donors (ex vivo) [4] | Tetramer-staining [5] | also measured
1 | GLFAVENFL (listed as Human cytomegalovirus) [SEQ ID NO: 4] | 53.9% | 7/13 | CD4 | 0.0% | – | ELISpot response rate (12 d stim.) ([1]; Tested HLA A*02:01): 53.9; actual HLA restriction [2]: Class II; Intracellular staining ([3]; Tested HLA A*02:01): CD4; ELISpot response rate (ex vivo) ([4]; Tested HLA A*02:01): 0.0
2 | YPRPPGSGL (listed as Human cytomegalovirus) [SEQ ID NO: 24] | 86.4% | 19/22 | Nega- | 25.0% | Positive | ELISpot response rate (12 d stim.) ([1]; Tested HLA B*07:02): 86.4; Tetramer staining ([5]; Tested HLA B*07:02): positive; ELISpot response rate (ex vivo) ([4]; Tested HLA B*07:02): 25.0
3 | ITEIALDRY (listed as Human cytomegalovirus) [SEQ ID NO: 54] | 58.3% | 14/24 | CD8 | 14.3% | Positive | ELISpot response rate (12 d stim.) ([1]; Tested HLA A*01:01): 58.3; Tetramer staining ([5]; Tested HLA A*01:01): positive; Intracellular staining ([3]; Tested HLA A*01:01): CD8; ELISpot response rate (ex vivo) ([4]; Tested HLA A*01:01): 14.3
4 | YLVRRPMTI (listed as Human cytomegalovirus) [SEQ ID NO: 80] | 50.0% | 11/22 | Nega- | 33.3% | Positive | ELISpot response rate (12 d stim.) ([1]; Tested HLA B*08:01): 50.0; Tetramer staining ([5]; Tested HLA B*08:01): positive; ELISpot response rate (ex vivo) ([4]; Tested HLA B*08:01): 33.3
5 | SPRDAWIVL (listed as Human cytomegalovirus) [SEQ ID NO: 26] | 68.2% | 15/22 | CD8 | 20.0% | Positive | ELISpot response rate (12 d stim.) ([1]; Tested HLA B*07:02): 68.2; Tetramer staining ([5]; Tested HLA B*07:02): positive; Intracellular staining ([3]; Tested HLA B*07:02): CD8; ELISpot response rate (ex vivo) ([4]; Tested HLA B*07:02): 20.0
6 | NLVPMVATV (listed as Human cytomegalovirus) [SEQ ID NO: 101] | – | – | – | – | – | ELISpot response rate (12 d stim.) ([1]; Tested HLA A*02:01): 75.0; Tetramer staining ([5]; Tested HLA A*02:01): positive; Intracellular staining ([3]; Tested HLA A*02:01): CD8; ELISpot response rate (ex vivo) ([4]; Tested HLA A*02:01): 100.0
7 | LPLKMLNI (listed as Human cytomegalovirus) [SEQ ID NO: 87] | 80.0% | 12/15 | CD8 | 87.5% | Positive | ELISpot response rate (12 d stim.) ([1]; Tested HLA B*51:01): 80.0; Tetramer staining ([5]; Tested HLA B*51:01): positive; Intracellular staining ([3]; Tested HLA B*51:01): CD8; ELISpot response rate (ex vivo) ([4]; Tested HLA B*51:01): 87.5
